Experimental data published in patent publication US11434242B2, “Dopamine-b-hydroxylase inhibitors” (BIAL-PORTELA & Cª, S.A., priority 2017, dated 2022).

Target: T1, Dopamine beta hydroxylase (Homo sapiens, UniProt P09172)
T1 construct: 125 μl of plasma; tissue Instituto Português do Sangue Transplantação; host or cells: human plasma from healthy donors
T1 sequence (P09172 40-617 limits assumed): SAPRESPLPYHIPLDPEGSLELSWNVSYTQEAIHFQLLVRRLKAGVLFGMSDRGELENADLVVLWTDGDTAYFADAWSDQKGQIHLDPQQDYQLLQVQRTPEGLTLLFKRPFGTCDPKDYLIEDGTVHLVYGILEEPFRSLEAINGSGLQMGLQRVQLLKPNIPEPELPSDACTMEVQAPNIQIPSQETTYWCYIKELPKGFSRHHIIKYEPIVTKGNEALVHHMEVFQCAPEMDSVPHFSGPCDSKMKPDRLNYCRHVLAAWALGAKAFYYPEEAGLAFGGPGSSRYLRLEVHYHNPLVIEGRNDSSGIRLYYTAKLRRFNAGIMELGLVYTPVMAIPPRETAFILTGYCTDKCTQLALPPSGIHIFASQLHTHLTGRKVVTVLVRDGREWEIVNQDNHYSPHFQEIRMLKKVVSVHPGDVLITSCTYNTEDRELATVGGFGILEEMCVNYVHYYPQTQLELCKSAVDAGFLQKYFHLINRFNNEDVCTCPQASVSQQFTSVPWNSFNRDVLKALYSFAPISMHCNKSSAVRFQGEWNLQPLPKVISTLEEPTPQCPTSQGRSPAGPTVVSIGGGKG
Assay: Dopamine beta hydroxylase activity in human plasma
Type: biochemical
Conditions: for Plasma (0.01 μM), activity in % of control: inhibitor 0.01 μM; for Plasma (0.1 μM), activity in % of control: inhibitor 0.1 μM
Procedure, shortened: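 Healthy-donor human plasma pre-incubated 10 min at 37° C with compound at final 10, 100 or 1000 nM in pH 5.0 acetate buffer with ascorbate, fumarate, pargyline, N-ethylmaleimide, catalase and copper sulfate. Tyramine substrate then added for 45 min; octopamine formed was isolated by SCX cartridge, periodate-converted and read at 330 nm; activity given as % control.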

Structure (SMILES) | Plasma (0.01 μM), activity in % of control | Plasma (0.1 μM), activity in % of control
CN(C(=O)Cc1c2n(c(=S)n1C)C[C@@]1(c3c(F)ccc(Cl)c3F)C[C@@H]21)C1CCOC1 (stereo partly drawn) [Example 442, 2-((5aS,6aR)-5a-(3-chloro-2,6-difluorophenyl)-2-methyl-3-thioxo-2,3,5,5a,6,6a-hexahydrocyclopropa[3,4]pyrrolo[1,2-c]imidazol-1-yl)-N-methyl-N-(tetrahydrofuran-3-yl)acetamide] | 43.6 % of control | 10.0 % of control
CN(C(=O)Cc1c2n(c(=S)n1C)C[C@@]1(c3c(F)ccc(Cl)c3F)C[C@@H]21)C1CCOCC1 [Example 443, 2-((5aS,6aR)-5a-(3-chloro-2,6-difluorophenyl)-2-methyl-3-thioxo-2,3,5,5a,6,6a-hexahydrocyclopropa[3,4]pyrrolo[1,2-c]imidazol-1-yl)-N-methyl-N-(tetrahydro-2H-pyran-4-yl)acetamide] | 59.2 % of control | 11.5 % of control
Cn1c(CC(=O)N2CCCO2)c2n(c1=S)C[C@H](c1c(F)ccc(Cl)c1F)C2 [Example 444, (S)-2-(6-(3-chloro-2,6-difluorophenyl)-2-methyl-3-thioxo-2,5,6,7-tetrahydro-3H-pyrrolo[1,2-c]imidazol-1-yl)-1-(isoxazolidin-2-yl)ethan-1-one] | 73.5 % of control | 57.7 % of control
Cn1c(CC(=O)N2CCOCC2)c2n(c1=S)C[C@@H](c1c(F)cccc1F)C2 [Example 445, (R)-2-(6-(2,6-difluorophenyl)-2-methyl-3-thioxo-2,5,6,7-tetrahydro-3H-pyrrolo[1,2-c]imidazol-1-yl)-1-morpholinoethan-1-one] | 95.1 % of control | 73.7 % of control
Cn1c(CC(=O)N[C@@H]2CCOC2)c2n(c1=S)C[C@@H](c1c(F)cccc1F)C2 [Example 446, 2-((R)-6-(2,6-difluorophenyl)-2-methyl-3-thioxo-2,5,6,7-tetrahydro-3H-pyrrolo[1,2-c]imidazol-1-yl)-N—((R)-tetrahydrofuran-3-yl)acetamide] | 83.0 % of control | 62.9 % of control
Cn1c(CC(=O)NC2CCOCC2)c2n(c1=S)C[C@@H](c1c(F)cccc1F)C2 [Example 447, (R)-2-(6-(2,6-difluorophenyl)-2-methyl-3-thioxo-2,5,6,7-tetrahydro-3H-pyrrolo[1,2-c]imidazol-1-yl)-N-(tetrahydro-2H-pyran-4-yl)acetamide] | 94.4 % of control | 33.2 % of control
CN(C(=O)Cc1c2n(c(=S)n1C)C[C@@H](c1c(F)cccc1F)C2)C1COC1 [Example 448, (R)-2-(6-(2,6-difluorophenyl)-2-methyl-3-thioxo-2,5,6,7-tetrahydro-3H-pyrrolo[1,2-c]imidazol-1-yl)-N-methyl-N-(oxetan-3-yl)acetamide] | 93.3 % of control | 65.3 % of control
CN1C[C@@H](NC(=O)Cc2c3n(c(=S)n2C)C[C@H](c2c(F)ccc(Br)c2F)C3)CC1=O [Example 449, 2-((S)-6-(3-bromo-2,6-difluorophenyl)-2-methyl-3-thioxo-2,5,6,7-tetrahydro-3H-pyrrolo[1,2-c]imidazol-1-yl)-N—((S)-1-methyl-5-oxopyrrolidin-3-yl)acetamide] | 27.8 % of control | 2.3 % of control
Cn1c(CC(=O)N2CC[C@H](C#N)C2)c2n(c1=S)C[C@H](c1c(F)ccc(Br)c1F)C2 [Example 450, (S)-1-(2-((S)-6-(3-bromo-2,6-difluorophenyl)-2-methyl-3-thioxo-2,5,6,7-tetrahydro-3H-pyrrolo[1,2-c]imidazol-1-yl)acetyl)pyrrolidine-3-carbonitrile] | 32.6 % of control | 2.3 % of control
CN(C(=O)Cc1c2n(c(=S)n1C)C[C@H](c1c(F)ccc(Br)c1F)C2)[C@@H]1CCOC1 [Example 451, 2-((S)-6-(3-bromo-2,6-difluorophenyl)-2-methyl-3-thioxo-2,5,6,7-tetrahydro-3H-pyrrolo[1,2-c]imidazol-1-yl)-N-methyl-N—((R)-tetrahydrofuran-3-yl)acetamide] | 39.8 % of control | 5.5 % of control
CN(C)C(=O)C1CCN(C(=O)Cc2c3n(c(=S)n2C)C[C@H](c2c(F)ccc(Br)c2F)C3)CC1 [Example 452, (S)-1-(2-(6-(3-bromo-2,6-difluorophenyl)-2-methyl-3-thioxo-2,5,6,7-tetrahydro-3H-pyrrolo[1,2-c]imidazol-1-yl)acetyl)-N,N-dimethylpiperidine-4-carboxamide] | 49.6 % of control | 12.8 % of control
CN(C)C(=O)C1CCN(C(=O)Cc2c3n(c(=S)n2C)C[C@H](c2c(F)ccc(Br)c2F)C3)C1 (stereo partly drawn) [Example 453, 1-(2-((S)-6-(3-bromo-2,6-difluorophenyl)-2-methyl-3-thioxo-2,5,6,7-tetrahydro-3H-pyrrolo[1,2-c]imidazol-1-yl)acetyl)-N,N-dimethylpyrrolidine-3-carboxamide] | 56.6 % of control | 10.4 % of control
CN(C(=O)Cc1c2n(c(=S)n1C)C[C@H](c1c(F)ccc(Br)c1F)C2)C1COC1 [Example 454, (S)-2-(6-(3-bromo-2,6-difluorophenyl)-2-methyl-3-thioxo-2,5,6,7-tetrahydro-3H-pyrrolo[1,2-c]imidazol-1-yl)-N-methyl-N-(oxetan-3-yl)acetamide] | 56.8 % of control | 8.1 % of control
CN(C(=O)Cc1c2n(c(=S)n1C)C[C@@H](c1c(F)ccc(F)c1F)C2)[C@@H]1CCOC1 [Example 455, N-methyl-2-((R)-2-methyl-3-thioxo-6-(2,3,6-trifluorophenyl)-2,5,6,7-tetrahydro-3H-pyrrolo[1,2-c]imidazol-1-yl)-N—((R)-tetrahydrofuran-3-yl)acetamide] | 131.0 % of control | 50.2 % of control
Cn1c(CCO)c2n(c1=S)C[C@H](c1c(F)ccc(Br)c1F)C2 [Example 456, (S)-6-(3-bromo-2,6-difluorophenyl)-1-(2-hydroxyethyl)-2-methyl-2,5,6,7-tetrahydro-3H-pyrrolo[1,2-c]imidazole-3-thione] | 86.8 % of control | 20.2 % of control
